Ki and EC50 data for six molecules are collected here from US8846951B2 (AbbVie Inc., priority 2009, dated 2014).

In one assay the target is T1, h-5-HT6 receptor (Homo sapiens, UniProt P50406).
T1 construct: expressed in transfected cells; host or cells: HEK293 cells (membranes)
The experiment in a line: Human 5-HT6 receptor radioligand binding assay (HEK293 membranes, [3H]-LSD). Conditions: HEK293 membranes expressing h-5-HT6 receptor, 1 nM [3H]-LSD; geometrical mean; read-out: Ki (5-HT6 Agonist Site Radioligand Binding). How it is done: (v) Human 5-HT6 Receptor Radioligand Binding Assay
Preparation of Membranes by Ultrasonic Treatment and Differential Centrifugation
Cells from stable clonal cell lines expressing the corresponding receptor (5-HT6) were washed with PBS (without Ca^++, Mg^++) and harvested in PBS with 0.02% EDTA. The cells were collected by centrifugation at 500 g for 10 minutes at 4° C., washed with PBS and centrifuged (500 g, 10 minutes at 4° C.). The pellets were stored at −80° C. until use. For membrane preparation, the thawed cell pellet was resuspended in ice-cold sucrose buffer (0.25 M sucrose, 10 mM HEPES (pH 7.4), 1 mM phenylmethylsulfonyl fluoride (PMSF) in DMSO, 5 μg/ml Pepstatin-A, 3 mM EDTA, 0.025% Bacitracin) and homogenized with a Branson Sonifier W-250 (Settings: Timer 4; Output Control 3; Duty Cycle constant; 2 to 3 cycles). Cell disruption was checked with the aid of a microscope. Remaining unbroken cells were pelleted at 1,000 g for 10 minutes at 4° C. The sucrose buffer supernatant was then centrifuged at 60,000 g for 1 hour at 4° C. (Beckman Ultracentrifuge XL 80). The pellet was resuspended in 30 mL of ice-cold Tris buffer (20 mM TRIS (pH 7.4), 5 μg/mL Pepstatin A, 0.1 mM PMSF, 3 mM EDTA) by pipetting through a 10 mL serological pipette and centrifuged for 1 hour at 4° C. at 60,000 g. A final resuspension was performed in a small volume of ice-cold Tris buffer (see above) by pressing through a serological pipette followed by ultrasonic treatment with a Branson Sonifier W-250 (Settings: Timer 1; Output Control 3; Duty Cycle constant; 1 cycle). Protein concentration was determined (BCA-Kit; Pierce) and aliquots stored at −80° C. or in liquid nitrogen for long-term storage.
Receptor Binding Experiments
All receptor binding experiments were carried out in the corresponding assay buffer in a total volume of 200 μL in the presence of various concentrations of test compound (10^−5 M to 10^−9 M, tenfold serial dilution, duplicate determinations). The assays were terminated by filtration on polyethylenimine (PEI 0.1% or 0.3%) presoaked Packard Unifilter Plates (GF/C or GF/B) with a Tomtec MachIII U 96 well-plate harvester. After the plates had been dried for 2 hours at 55° C. in a drying chamber scintillation cocktail (BetaPlate Scint; PerkinElmer) was added. Radioactivity was measured in a Microbeta Trilux two hours after the addition of the scintillation mixture.
5-HT6 Receptor Binding Assay
HEK293 cells stably expressing the h-5-HT6 receptor (NCBI Reference Sequence XM 001435) were cultured in RPMI1640 medium supplemented with 25 mM HEPES, 10% fetal calf serum and 1-2 mM glutamine. The membrane preparation was performed as described above. […] On the day of the assay, the membranes were thawed, diluted in assay buffer (50 mM Tris-HCl, 5 mM CaCl2, 0.1% ascorbic acid, 10 μM pargyline, pH 7.4) to a concentration of 8 μg protein/assay and homogenized by gentle vortexing. […] Non-specific binding was defined with 1 μM methiothepin. The binding reaction was carried out for 3.5 hours at room temperature. During the incubation, the plates were shaken on a plate shaker at 100 rpm and terminated by filtration on Packard Unifilter GF/C (0.1% PEI) plates, followed by 2 wash cycles with ice-cold 50 mM Tris-HCl, 5 mM CaCl2.
Data derived from liquid scintillation counting were analyzed by iterative non-linear regression analysis with the use of the Statistical Analysis System (SAS): a program similar to “LIGAND” as described by Munson and Rodbard (Anal. Biochem. 1980, 107, 220-239). Fitting was performed according to formulae described by Feldman (Anal. Biochem. 1972, 48, 317-338). IC50 and Ki values were expressed as geometrical mean.

Assay [1] has as its target T2, human serotonin 5-HT2c receptor (Homo sapiens, UniProt P28335).
T2 construct: expressed in transfected cells; host or cells: CHO cells (membrane homogenates)
T2 sequence (P28335 33-458): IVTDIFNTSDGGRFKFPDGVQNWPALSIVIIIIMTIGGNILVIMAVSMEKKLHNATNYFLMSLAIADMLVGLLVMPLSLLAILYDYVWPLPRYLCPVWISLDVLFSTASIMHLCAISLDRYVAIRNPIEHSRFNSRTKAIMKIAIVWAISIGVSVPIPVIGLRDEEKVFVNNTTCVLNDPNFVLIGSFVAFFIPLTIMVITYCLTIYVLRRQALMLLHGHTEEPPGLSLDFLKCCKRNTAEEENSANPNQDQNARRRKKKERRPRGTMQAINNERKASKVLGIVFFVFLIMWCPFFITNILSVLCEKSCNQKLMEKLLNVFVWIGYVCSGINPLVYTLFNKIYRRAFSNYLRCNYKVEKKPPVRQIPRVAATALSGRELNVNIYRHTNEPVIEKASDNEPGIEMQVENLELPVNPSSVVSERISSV
The experiment in a line: Human 5-HT2C receptor radioligand binding assay (agonist site, [125I]DOI). Conditions: 5-HT2c agonist site; transfected CHO cell membranes; 0.2 nM [125I](±)DOI. How it is done:
(i) Human 5-HT2C Receptor Radioligand Binding Assay
Affinity of compounds for the agonist site of the […], receptor in transfected CHO cells was determined in a radioligand binding assay essentially as described by Bryant, H. U., et al., Life Sciences (1996) 59(15), 1259-1268.

In assay [2] the target is T3, 5HT2C receptors (Homo sapiens, UniProt P28335).
T3 sequence (P28335 33-458): T2 sequence (P28335 33-458)
The experiment in a line: Human 5-HT2C functional assay in CHO-K1 cells (96-well, calcium, FLIPR). Format: cell-based. On the set-up: expressed in transfected cells. Conditions: 5-HT2c agonist activity, CHO-K1 cells stably transfected. How it is done:
(iv) Human 5-HT2C Functional Assay in CHO-K1 Cells
Functional activity was determined by testing the effect of the compounds on intracellular calcium levels in CHO-K1 cells stably transfected with the human 5-HT2C receptor. Cells were seeded into 96-well plates at 60,000 cells/well and grown overnight in tissue culture medium (UltraCHO™ (Lonza), containing 1% dFCS, 250 μg/mL Zeocin, 400 μg/mL Geneticin) at 37° C. and 5% CO2. Growth medium was replaced by medium without dFCS for overnight incubation. Cells were loaded with a fluorescent calcium-sensitive dye in the presence of probenicid according to the manufacturer's protocol (FLIPR Ca4 Assay kit, Molecular Devices). Serial compound dilutions (final concentrations 10^−10 to 10^−5 M) were added to the cells and the maximum calcium response was determined using a FLIPR instrument (Molecular Devices). Concentration-response curves were fitted using a four-parameter logistic equation (GraphPad Prism). The concentration at which the compound exerts half its maximal effect is named the ‘effective concentration 50’ or ‘EC50’ and is listed in Table 5.

A further assay concerns the target T4, 5-HT6 receptor (Homo sapiens, UniProt P50406).
T4 construct: expressed in transfected cells; host or cells: CHO cells (membrane homogenates)
Briefly: Human 5-HT6 receptor radioligand binding assay (transfected CHO cells, [3H]LSD). The settings on record: transfected CHO cell membranes, 2 nM [3H]LSD. How it is done: (vi) Human 5-HT6 Receptor Radioligand Binding Assay
Affinity of compounds for the agonist site of the 5-HT6 receptor in transfected CHO cells was determined in a radioligand binding assay essentially as described by Monsma, F. J., et al., Mol. Pharmacol. (1993) 43, 320-327. […] Nonspecific binding was determined in the presence of 100 μM serotonin. The amount of binding was determined by radioactivity quantitation with scintillation counter. IC50s were determined from a standard curve of the reference compound serotonin. Ki's as shown in Table 7 were derived from the IC50s in the standard method.

For assay [3], the target named is T3, 5HT2C receptors. Briefly: Human 5-HT2C functional assay in 1321N1 cells (intracellular calcium, FLIPR). Format: cell-based. On the set-up: expressed in transfected cells; host or cells: 1321N1 cells. Conditions: 5-HT2c agonist activity, maximum calcium response. In outline: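 Intracellular calcium (Fluo-4, FLIPR peak response) was measured in stably transfected human 5-HT2C 1321N1 cells after overnight serum-free culture. Compounds were applied at final 10^−10 to 10^−5 M either alone or together with 10^−9 M serotonin. Half-maximal effect concentration was derived by four-parameter logistic fitting.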
In general terms: A change in cytosolic calcium serves as a functional read-out for many receptors and channels.

T4 sequence (P50406 whole entry): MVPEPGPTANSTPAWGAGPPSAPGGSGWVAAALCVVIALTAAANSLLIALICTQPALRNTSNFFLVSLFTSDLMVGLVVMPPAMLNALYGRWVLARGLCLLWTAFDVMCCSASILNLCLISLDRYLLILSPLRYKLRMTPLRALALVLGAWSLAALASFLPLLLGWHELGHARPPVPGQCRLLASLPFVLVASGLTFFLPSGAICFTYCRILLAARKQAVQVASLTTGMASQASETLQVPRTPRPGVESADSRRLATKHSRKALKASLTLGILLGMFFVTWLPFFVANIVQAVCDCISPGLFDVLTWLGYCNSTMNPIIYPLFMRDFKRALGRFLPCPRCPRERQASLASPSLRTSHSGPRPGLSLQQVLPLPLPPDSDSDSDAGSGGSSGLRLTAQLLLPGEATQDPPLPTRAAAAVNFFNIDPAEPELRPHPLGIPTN
T1 sequence (P50406 whole entry): as above

In general, Ki refers to the equilibrium dissociation constant of an inhibitor or competing ligand from its target. Broadly, the EC50 is the concentration needed to bring the measured effect to its halfway point. For `O=S(=O)(c1cccc(F)c1)N1Cc2ccccc2[C@@H]2CN(Cc3ccccc3)C[C@H]2C1` (relative stereo) [Example 8, Trans-2-benzyl-5-(3-fluorophenylsulfonyl)-1,2,3,3a,4,5,6,10b-octahydrobenzo[c]pyrrolo[3,4-e]azepine], the Ki on h-5-HT6 receptor came out at 40.3 nM; in assay [1], 93 nM; at 5-HT6 receptor it was 28 nM. In addition, at 5HT2C receptors [2], the EC50 was over 1000 nM.

On to `O=C1NCc2ccccc2[C@@H]2CN(S(=O)(=O)c3cccc(Cl)c3Cl)C[C@@H]12` (relative stereo) [Example 39, Trans-2-(2,3-dichlorophenylsulfonyl)-1,2,3,3a,5,6-hexahydrobenzo[c]pyrrolo[3,4-e]azepin-4(10bH)-one], for which the Ki was determined as 207 nM at h-5-HT6 receptor and 275 nM on 5-HT6 receptor.

Regarding `O=S(=O)(c1cccc(Br)c1)N1Cc2ccccc2[C@@H]2CN(Cc3ccccc3)C[C@H]2C1` (relative stereo) [Example 12, Trans-2-benzyl-5-(3-bromophenylsulfonyl)-1,2,3,3a,4,5,6,10b-octahydrobenzo[c]pyrrolo[3,4-e]azepine], the figures for the Ki (in assay [1]; at 5-HT6 receptor) were 320 nM and 57 nM, respectively. For the same molecule, the EC50 at 5HT2C receptors [3] was over 10000 nM.

In the case of `O=S(=O)(c1cccc(C(F)(F)F)c1)N1Cc2ccccc2[C@@H]2CN(Cc3ccccc3)C[C@H]2C1` (relative stereo) [Example 16, Trans-2-benzyl-5-(3-(trifluoromethyl)phenylsulfonyl)-1,2,3,3a,4,5,6,10b-octahydrobenzo[c]pyrrolo[3,4-e]azepine], the Ki is 560 nM in assay [1] and 140 nM on 5-HT6 receptor. Moreover, at 5HT2C receptors [3], the EC50 is over 10000 nM.

As to `O=S(=O)(c1ccc(F)c(Cl)c1)N1Cc2ccccc2[C@@H]2CN(Cc3ccccc3)C[C@H]2C1` (relative stereo) [Example 14, Trans-2-benzyl-5-(3-chloro-4-fluorophenylsulfonyl)-1,2,3,3a,4,5,6,10b-octahydrobenzo[c]pyrrolo[3,4-e]azepine], the Ki in assay [1] turned out to be 590 nM; at 5-HT6 receptor, 250 nM. For the same molecule, the EC50 on 5HT2C receptors [3] was over 10000 nM.

As to `O=S(=O)(c1cccc(Cl)c1)N1Cc2ccccc2[C@@H]2CN(Cc3ccccc3)C[C@H]2C1` (relative stereo) [Example 20, Trans-2-benzyl-5-(3-chlorophenylsulfonyl)-1,2,3,3a,4,5,6,10b-octahydrobenzo[c]pyrrolo[3,4-e]azepine], the results for the Ki (in assay [1]; on 5-HT6 receptor) were 260 nM and 43 nM, respectively. Moreover, the EC50 on 5HT2C receptors [3] was over 10000 nM.
